Data: the NIST ThermoML archive (doi:10.1016/j.jct.2013.02.022)

How the values were obtained:
[1] = xn = mol fraction of the nth substance listed; details: 101 kPa, Liquid, Vibrating tube method
[2] = refractive index (Na D-line) (dimensionless); xn = mol fraction of the nth substance listed; details: 101 kPa, Liquid, Standard Abbe refractometry

CCCC(=O)[O-].C[NH2+]CCO [N-methyl-2-hydroxyethylammonium butanoate] + CCOC(C)=O
Details | mass density, [1] [kg/m3] | refractive index, [2]
303.15 K, x2 = 0 | 1035.87 | 1.4534
303.15 K, x2 = 0.0454 | – | 1.4533
303.15 K, x2 = 0.0956 | – | 1.4511
303.15 K, x2 = 0.199 | 1013.58 | 1.4472
303.15 K, x2 = 0.2901 | 1004.61 | 1.4411
303.15 K, x2 = 0.412 | – | 1.4324
303.15 K, x2 = 0.507 | 981.19 | 1.4246
303.15 K, x2 = 0.6018 | – | 1.4161
303.15 K, x2 = 0.7039 | 950.35 | 1.4055
303.15 K, x2 = 0.8031 | 931.53 | 1.3949
303.15 K, x2 = 0.8998 | 911.57 | 1.3812
303.15 K, x2 = 0.9497 | – | 1.3746
303.16 K, x2 = 0.0454 | 1026.24 | –
303.16 K, x2 = 0.0956 | 1022.32 | –
303.16 K, x2 = 0.412 | 992.58 | –
303.16 K, x2 = 0.6018 | 967.06 | –
303.16 K, x2 = 0.9497 | 900.62 | –
308.15 K, x2 = 0 | 1032.53 | –
308.15 K, x2 = 0.0956 | 1018.71 | –
308.15 K, x2 = 0.199 | 1009.85 | –
308.15 K, x2 = 0.2901 | 1000.57 | –
308.15 K, x2 = 0.412 | 987.98 | –
308.15 K, x2 = 0.507 | 976.57 | –
308.15 K, x2 = 0.6018 | 962.31 | –
308.15 K, x2 = 0.7039 | 945.26 | –
308.15 K, x2 = 0.8031 | 926.08 | –
308.15 K, x2 = 0.8998 | 905.73 | –
308.16 K, x2 = 0.0454 | 1022.67 | –
308.16 K, x2 = 0.9497 | 894.58 | –
313.15 K, x2 = 0.0454 | 1019.09 | –
313.15 K, x2 = 0.0956 | 1015.1 | –
313.15 K, x2 = 0.6018 | 957.53 | –
313.16 K, x2 = 0 | 1029.14 | –
313.16 K, x2 = 0.199 | 1006.08 | –
313.16 K, x2 = 0.2901 | 996.56 | –
313.16 K, x2 = 0.412 | 983.25 | –
313.16 K, x2 = 0.507 | 971.82 | –
313.16 K, x2 = 0.7039 | 940.11 | –
313.16 K, x2 = 0.8031 | 920.58 | –
313.16 K, x2 = 0.8998 | 899.84 | –
313.16 K, x2 = 0.9497 | 888.5 | –
318.15 K, x2 = 0.9497 | 882.16 | –
318.16 K, x2 = 0 | 1025.72 | –
318.16 K, x2 = 0.0454 | 1015.66 | –
318.16 K, x2 = 0.0956 | 1011.66 | –
318.16 K, x2 = 0.199 | 1002.32 | –
318.16 K, x2 = 0.2901 | 992.61 | –
318.16 K, x2 = 0.412 | 978.49 | –
318.16 K, x2 = 0.507 | 967.05 | –
318.16 K, x2 = 0.6018 | 952.68 | –
318.16 K, x2 = 0.7039 | 934.92 | –
318.16 K, x2 = 0.8031 | 915.03 | –
318.16 K, x2 = 0.8998 | 893.91 | –
323.14 K, x2 = 0.0454 | 1012.2 | –
323.14 K, x2 = 0.0956 | 1007.98 | –
323.14 K, x2 = 0.199 | 998.56 | –
323.14 K, x2 = 0.2901 | 988.83 | –
323.14 K, x2 = 0.412 | 974.67 | –
323.14 K, x2 = 0.507 | 962.75 | –
323.14 K, x2 = 0.7039 | 929.55 | –
323.14 K, x2 = 0.8031 | 909.33 | –
323.14 K, x2 = 0.8998 | 887.92 | –
323.15 K, x2 = 0.6018 | 947.5 | –
323.15 K, x2 = 0.9497 | 876.1 | –
323.16 K, x2 = 0 | 1022.26 | –

CCCC(=O)[O-].C[NH2+]CCO [N-methyl-2-hydroxyethylammonium butanoate] + COC(C)=O
Details | mass density, [1] [kg/m3] | refractive index, [2]
288.14 K, x2 = 0.7912 | 977.2 | –
288.15 K, x2 = 0 | 1046 | 1.4579
288.15 K, x2 = 0.0646 | 1040 | 1.4558
288.15 K, x2 = 0.1097 | 1036.1 | 1.4556
288.15 K, x2 = 0.2074 | 1027.3 | 1.4509
288.15 K, x2 = 0.3079 | 1021.07 | 1.4449
288.15 K, x2 = 0.3983 | 1015.6 | 1.4399
288.15 K, x2 = 0.4973 | 1011.5 | 1.4327
288.15 K, x2 = 0.5928 | 1003 | 1.4232
288.15 K, x2 = 0.6898 | 991.4 | 1.413
288.15 K, x2 = 0.7912 | – | 1.3996
288.15 K, x2 = 0.8979 | – | 1.3833
288.15 K, x2 = 0.898 | 959.7 | –
288.15 K, x2 = 0.9483 | – | 1.3746
288.16 K, x2 = 0.9483 | 950.1 | –
293.14 K, x2 = 0.0646 | 1036.4 | –
293.14 K, x2 = 0.1097 | 1032.5 | –
293.14 K, x2 = 0.9483 | 943.8 | –
293.15 K, x2 = 0 | 1042.6 | –
293.15 K, x2 = 0.2074 | 1024 | –
293.15 K, x2 = 0.3079 | 1017.3 | –
293.15 K, x2 = 0.3983 | 1011.4 | –
293.15 K, x2 = 0.4973 | 1007.2 | –
293.15 K, x2 = 0.5928 | 998.4 | –
293.15 K, x2 = 0.6898 | 986.5 | –
293.15 K, x2 = 0.7912 | 971.7 | –
293.15 K, x2 = 0.898 | 953.8 | –
298.14 K, x2 = 0.0646 | 1032.8 | –
298.14 K, x2 = 0.3983 | 1007.1 | –
298.14 K, x2 = 0.6898 | 981.5 | –
298.14 K, x2 = 0.7912 | 966.2 | –
298.14 K, x2 = 0.898 | 947.7 | –
298.14 K, x2 = 0.9483 | 937.5 | –
298.15 K, x2 = 0 | 1039.2 | –
298.15 K, x2 = 0.1097 | 1028.9 | –
298.15 K, x2 = 0.2074 | 1019.6 | –
298.15 K, x2 = 0.3079 | 1013.2 | –
298.15 K, x2 = 0.4973 | 1002.9 | –
298.15 K, x2 = 0.5928 | 993.7 | –
303.14 K, x2 = 0.0646 | 1029.1 | –
303.14 K, x2 = 0.2074 | 1015.8 | –
303.14 K, x2 = 0.3983 | 1002.8 | –
303.14 K, x2 = 0.4973 | 998.4 | –
303.14 K, x2 = 0.5928 | 989.1 | –
303.14 K, x2 = 0.6898 | 976.4 | –
303.14 K, x2 = 0.7912 | 960.7 | –
303.14 K, x2 = 0.898 | 941.6 | –
303.14 K, x2 = 0.9483 | 931.1 | –
303.15 K, x2 = 0 | 1035.9 | –
303.15 K, x2 = 0.1097 | 1025.2 | –
303.15 K, x2 = 0.3079 | 1009 | –
308.14 K, x2 = 0.0646 | 1025.6 | –
308.14 K, x2 = 0.2074 | 1013.3 | –
308.14 K, x2 = 0.3079 | 1004.8 | –
308.14 K, x2 = 0.3983 | 998.5 | –
308.14 K, x2 = 0.4973 | 992.6 | –
308.14 K, x2 = 0.6898 | 971.3 | –
308.14 K, x2 = 0.7912 | 955.1 | –
308.14 K, x2 = 0.898 | 935.5 | –
308.14 K, x2 = 0.9483 | 924.6 | –
308.15 K, x2 = 0 | 1032.5 | –
308.15 K, x2 = 0.1097 | 1021.6 | –
308.15 K, x2 = 0.5928 | 984.3 | –
313.14 K, x2 = 0.0646 | 1022 | –
313.14 K, x2 = 0.1097 | 1018 | –
313.14 K, x2 = 0.2074 | 1009.2 | –
313.14 K, x2 = 0.3079 | 1000.6 | –
313.14 K, x2 = 0.3983 | 994.2 | –
313.14 K, x2 = 0.4973 | 988.8 | –
313.14 K, x2 = 0.6898 | 966.1 | –
313.14 K, x2 = 0.7912 | 949.5 | –
313.14 K, x2 = 0.898 | 929.3 | –
313.14 K, x2 = 0.9483 | 918.1 | –
313.15 K, x2 = 0.5928 | 979.6 | –
313.16 K, x2 = 0 | 1029.1 | –
318.14 K, x2 = 0.1097 | 1014.3 | –
318.14 K, x2 = 0.3079 | 996.3 | –
318.14 K, x2 = 0.5928 | 974.8 | –
318.14 K, x2 = 0.898 | 923 | –
318.14 K, x2 = 0.9483 | 911.5 | –
318.15 K, x2 = 0.0646 | 1018.3 | –
318.15 K, x2 = 0.2074 | 1006.1 | –
318.15 K, x2 = 0.3983 | 989.8 | –
318.15 K, x2 = 0.4973 | 983.8 | –
318.15 K, x2 = 0.6898 | 961 | –
318.15 K, x2 = 0.7912 | 943.8 | –
318.16 K, x2 = 0 | 1025.7 | –
323.14 K, x2 = 0.1097 | 1010.6 | –
323.14 K, x2 = 0.5928 | 970 | –
323.15 K, x2 = 0.0646 | 1014.6 | –
323.15 K, x2 = 0.2074 | 1001.4 | –
323.15 K, x2 = 0.3079 | 992.33 | –
323.15 K, x2 = 0.3983 | 985.3 | –
323.15 K, x2 = 0.4973 | 979.2 | –
323.15 K, x2 = 0.6898 | 955.7 | –
323.15 K, x2 = 0.7912 | 938.1 | –
323.15 K, x2 = 0.898 | 916.7 | –
323.15 K, x2 = 0.9483 | 904.9 | –
323.16 K, x2 = 0 | 1022.3 | –
